Molecular target: Aurora B/INCENP (Homo sapiens, UniProt Q96GD4)
Assay: Determination of inhibition of AIK: Aurora B/INCENP direct fluorescence polarization (IMAP) assay
Type: biochemical
Settings: 10 uM ATP, 0.8 nM Aurora B/INCENP; values given as bins; read-out: IC50 of Exemplified Compounds Against AIK B

Sequence of Aurora B/INCENP (Q96GD4 whole entry): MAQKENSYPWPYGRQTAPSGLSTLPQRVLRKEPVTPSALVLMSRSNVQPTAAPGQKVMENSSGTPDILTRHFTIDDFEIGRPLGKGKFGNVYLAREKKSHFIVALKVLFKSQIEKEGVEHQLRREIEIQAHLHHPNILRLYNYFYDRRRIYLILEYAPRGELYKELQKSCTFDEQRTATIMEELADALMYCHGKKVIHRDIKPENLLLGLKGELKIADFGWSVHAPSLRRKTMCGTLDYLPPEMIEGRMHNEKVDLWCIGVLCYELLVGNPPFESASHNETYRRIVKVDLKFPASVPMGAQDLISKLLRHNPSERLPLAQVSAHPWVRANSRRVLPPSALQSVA
Sequence of Aurora B/INCENP (Q9NQS7 whole entry partner): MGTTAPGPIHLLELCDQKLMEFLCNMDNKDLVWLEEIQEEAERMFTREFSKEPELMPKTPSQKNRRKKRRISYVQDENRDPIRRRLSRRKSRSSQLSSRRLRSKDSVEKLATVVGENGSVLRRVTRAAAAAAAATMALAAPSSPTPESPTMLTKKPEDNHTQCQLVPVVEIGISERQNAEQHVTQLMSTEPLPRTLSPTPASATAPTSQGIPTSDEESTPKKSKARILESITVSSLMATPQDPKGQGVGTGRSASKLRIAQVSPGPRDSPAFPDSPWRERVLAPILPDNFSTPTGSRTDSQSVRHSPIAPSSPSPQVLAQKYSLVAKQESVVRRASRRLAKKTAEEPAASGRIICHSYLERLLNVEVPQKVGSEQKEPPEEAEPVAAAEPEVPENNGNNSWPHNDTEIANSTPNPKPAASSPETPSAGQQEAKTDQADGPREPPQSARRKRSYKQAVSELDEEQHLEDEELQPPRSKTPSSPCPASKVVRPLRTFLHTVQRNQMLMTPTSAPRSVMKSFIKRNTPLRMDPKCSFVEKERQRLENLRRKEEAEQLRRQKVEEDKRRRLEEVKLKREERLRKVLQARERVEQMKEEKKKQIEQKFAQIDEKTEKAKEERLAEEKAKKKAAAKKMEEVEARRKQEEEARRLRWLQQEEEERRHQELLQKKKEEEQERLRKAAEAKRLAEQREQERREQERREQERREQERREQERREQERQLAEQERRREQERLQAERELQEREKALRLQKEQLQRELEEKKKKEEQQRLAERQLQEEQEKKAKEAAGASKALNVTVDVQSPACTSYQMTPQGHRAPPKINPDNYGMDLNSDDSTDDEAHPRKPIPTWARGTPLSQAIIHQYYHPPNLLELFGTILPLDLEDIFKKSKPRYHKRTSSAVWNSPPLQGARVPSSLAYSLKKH

`CNS(=O)(=O)c1cccc(-c2ccc(OCC3CCN(C)CC3)c3[nH]c4ncc(C)cc4c23)c1` [Compound 180, N-methyl-3-(3-methyl-8-((1-methylpiperidin-4-yl)methoxy)-9H-pyrido[2,3-b]indole-5-yl)benzenesulfonamide] and `Cc1cnc2[nH]c3c(OCC4CCN(C)CC4)ccc(-c4cccc(S(=O)(=O)N(C)C)c4)c3c2c1` [Compound 181, N,N-dimethyl-3-(3-methyl-8-((1-methylpiperidin-4-yl)methoxy)-9H-pyrido[2,3-b]indole-5-yl)benzenesulfonamide] fall in the same range of IC50: 8.6 to 13 nM for the first, 8.6 to 13 nM for the second.

Compared with `Cc1cnc2[nH]c3c(OCC4CCN(C)CC4)ccc(-c4cccc(NC(=O)C5CC5)c4)c3c2c1` [Compound 182, N-(3-(3-methyl-8-((1-methylpiperidin-4-yl)methoxy)-9H-pyrido[2,3-b]indol-5-yl)phenyl)cyclopropanecarboxamide], `CCSc1cccc(-c2ccc(OCC3CCN(C)CC3)c3[nH]c4ncc(C)cc4c23)c1` [Compound 183] is higher in IC50: 5.6 to 8.5 nM for the first, greater than 13 nM for the second.

`CCOc1cccc(-c2ccc(OCC3CCN(C)CC3)c3[nH]c4ncc(C)cc4c23)c1` [Compound 184, 5-(3-ethoxyphenyl)-3-methyl-8-((1-methylpiperidin-4-yl)methoxy)-9H-pyrido[2,3-b]indole] and `CCS(=O)(=O)c1cccc(-c2ccc(OC[C@H]3CCN(C)C3)c3[nH]c4ncc(C)cc4c23)c1` [Compound 186, (S)-5-(3-(ethylsulfonyl)phenyl)-3-methyl-8-((1-methylpyrrolidin-3-yl)methoxy)-9H-pyrido[2,3-b]indole] cannot be ordered by IC50: greater than 13 nM for the first, greater than 13 nM for the second.

Compared with `CCS(=O)(=O)c1cccc(-c2ccc(OCC3CCNCC3)c3[nH]c4ncc(C)cc4c23)c1` [Compound 185, 5-(3-(ethylsulfonyl)phenyl)-3-methyl-8-(piperidin-4-ylmethoxy)-9H-pyrido[2,3-b]indole], `CCS(=O)(=O)c1cccc(-c2ccc(OC[C@H]3CCNC3)c3[nH]c4ncc(C)cc4c23)c1` [Compound 189, (S)-5-(3-(ethylsulfonyl)phenyl)-3-methyl-8-(pyrrolidin-3-ylmethoxy)-9H-pyrido[2,3-b]indole] is higher in IC50: 4 to 5.5 nM for the first, 8.6 to 13 nM for the second.

Compared with `CCS(=O)(=O)c1cccc(-c2ccc(OC[C@@H]3CCN(C)C3)c3[nH]c4ncc(C)cc4c23)c1` [Compound 187, (R)-5-(3-(ethylsulfonyl)phenyl)-3-methyl-8-((1-methylpyrrolidin-3-yl)methoxy)-9H-pyrido[2,3-b]indole], `CCS(=O)(=O)c1cccc(-c2ccc(OC[C@@H]3CCCN3C)c3[nH]c4ncc(C)cc4c23)c1` [Compound 188, (S)-5-(3-(ethylsulfonyl)phenyl)-3-methyl-8-((1-methylpyrrolidin-2-yl)methoxy)-9H-pyrido[2,3-b]indole] is lower in IC50: greater than 13 nM for the first, 8.6 to 13 nM for the second.

First: CCS(=O)(=O)c1cccc(-c2ccc(OC[C@@H]3CCNC3)c3[nH]c4ncc(C)cc4c23)c1 [Compound 190, (R)-5-(3-(ethylsulfonyl)phenyl)-3-methyl-8-(pyrrolidin-3-ylmethoxy)-9H-pyrido[2,3-b]indole]
Second: CCS(=O)(=O)c1cccc(-c2ccc(OCC3CCNCC3)c3[nH]c4ncc(Cl)cc4c23)c1 [Compound 201, 3-chloro-5-(3-(ethylsulfonyl)phenyl)-8-(piperidin-4-ylmethoxy)-9H-pyrido[2,3-b]indole]
The IC50 of the first is higher: greater than 13 nM for the first, less than 4 nM for the second. The second is the more potent here.

`Cc1cnc2[nH]c3c(OCCCN(C)C)ccc(-c4cccc(S(=O)(=O)C5CC5)c4)c3c2c1` [Compound 194, 3-(5-(3-(cyclopropylsulfonyl)phenyl)-3-methyl-9H-pyrido[2,3-b]indol-8-yloxy)-N,N-dimethylpropan-1-amine] and `CCS(=O)(=O)c1cccc(-c2ccc(OCCCN(C)C)c3[nH]c4ncc(C)cc4c23)c1` [Compound 206, 3-(5-(3-(ethylsulfonyl)phenyl)-3-methyl-9H-pyrido[2,3-b]indol-8-yloxy)-N,N-dimethylpropan-1-amine] fall in the same range of IC50: 4 to 5.5 nM for the first, 4 to 5.5 nM for the second.

`Cc1cnc2[nH]c3c(OCCCN(C)C)ccc(-c4cccc(NC(=O)C5CC5)c4)c3c2c1` [Compound 195, N-(3-(8-(3-(dimethylamino)propoxy)-3-methyl-9H-pyrido[2,3-b]indol-5-yl)phenyl)cyclopropanecarboxamide] and `CCS(=O)(=O)c1cccc(-c2ccc(OCCN(C)C)c3[nH]c4ncc(C)cc4c23)c1` [Compound 207, 2-(5-(3-(ethylsulfonyl)phenyl)-3-methyl-9H-pyrido[2,3-b]indol-8-yloxy)-N,N-dimethylethanamine] cannot be ordered by IC50: greater than 13 nM for the first, greater than 13 nM for the second.

`CCS(=O)(=O)c1cccc(-c2ccc(OCC3CCN(C)CC3)c3[nH]c4ncc(Cl)cc4c23)c1` [Compound 200, 3-chloro-5-(3-(ethylsulfonyl)phenyl)-8-((1-methylpiperidin-4-yl)methoxy)-9H-pyrido[2,3-b]indole] and `CCS(=O)(=O)c1cccc(-c2ccc(OCC3CCN(C)CC3)c3[nH]c4ncc(C#N)cc4c23)c1` [Compound 203, 5-(3-(ethylsulfonyl)phenyl)-8-((1-methylpiperidin-4-yl)methoxy)-9H-pyrido[2,3-b]indole-3-carbonitrile] fall in the same range of IC50: 5.6 to 8.5 nM for the first, 5.6 to 8.5 nM for the second.

First: CCS(=O)(=O)c1cccc(-c2ccc(OCC3CCN(C)CC3)c3[nH]c4ncc(C(F)(F)F)cc4c23)c1 [Compound 202, 5-(3-(ethylsulfonyl)phenyl)-8-((1-methylpiperidin-4-yl)methoxy)-3-(trifluoromethyl)-9H-pyrido[2,3-b]indole]
Second: CCS(=O)(=O)c1cccc(-c2ccc(OCCN3CCN(C)CC3)c3[nH]c4ncc(Cl)cc4c23)c1 [Compound 224, 3-chloro-5-(3-(ethylsulfonyl)phenyl)-8-(2-(4-methylpiperazin-1-yl)ethoxy)-9H-pyrido[2,3-b]indole]
The IC50 of the first is higher: 8.6 to 13 nM for the first, 5.6 to 8.5 nM for the second.

First: CCS(=O)(=O)c1cccc(-c2cc(F)c(OCCN(C)C)c3[nH]c4ncc(C)cc4c23)c1 [Compound 204, 2-(5-(3-(ethylsulfonyl)phenyl)-7-fluoro-3-methyl-9H-pyrido[2,3-b]indol-8-yloxy)-N,N-dimethylethanamine]
Second: CCS(=O)(=O)c1cccc(-c2cc(F)c(OCCCN(C)C)c3[nH]c4ncc(Cl)cc4c23)c1 [Compound 205, 3-(3-chloro-5-(3-(ethylsulfonyl)phenyl)-7-fluoro-9H-pyrido[2,3-b]indol-8-yloxy)-N,N-dimethylpropan-1-amine]
The IC50 of the first is higher: 8.6 to 13 nM for the first, less than 4 nM for the second. The second is the more potent here.

First: CCS(=O)(=O)c1cccc(-c2ccc(OCCOC)c3[nH]c4ncc(C)cc4c23)c1 [Compound 208, 5-(3-(ethylsulfonyl)phenyl)-8-(2-methoxyethoxy)-3-methyl-9H-pyrido[2,3-b]indole]
Second: CCS(=O)(=O)c1cccc(-c2ccc(OCCO)c3[nH]c4ncc(C)cc4c23)c1 [Compound 216, 2-(5-(3-(ethylsulfonyl)phenyl)-3-methyl-9H-pyrido[2,3-b]indol-8-yloxy)ethanol]
The IC50 of the first is higher: 8.6 to 13 nM for the first, 5.6 to 8.5 nM for the second. The second is the more potent here.

First: CCS(=O)(=O)c1cccc(-c2ccc(OCC#N)c3[nH]c4ncc(C)cc4c23)c1 [Compound 209, 2-(5-(3-(ethylsulfonyl)phenyl)-3-methyl-9H-pyrido[2,3-b]indol-8-yloxy)acetonitrile]
Second: CCS(=O)(=O)c1cccc(-c2ccc(OCCC#N)c3[nH]c4ncc(C)cc4c23)c1 [Compound 210, 3-(5-(3-(ethylsulfonyl)phenyl)-3-methyl-9H-pyrido[2,3-b]indol-8-yloxy)propanenitrile]
The IC50 of the first is lower: less than 4 nM for the first, greater than 13 nM for the second.

First: CCS(=O)(=O)c1cccc(-c2ccc(O[C@H](C)CO)c3[nH]c4ncc(C)cc4c23)c1 [Compound 212, (R)-2-(5-(3-(ethylsulfonyl)phenyl)-3-methyl-9H-pyrido[2,3-b]indol-8-yloxy)propan-1-ol]
Second: CCS(=O)(=O)c1cccc(-c2ccc(O[C@@H](C)CO)c3[nH]c4ncc(C)cc4c23)c1 [Compound 213, (S)-2-(5-(3-(ethylsulfonyl)phenyl)-3-methyl-9H-pyrido[2,3-b]indol-8-yloxy)propan-1-ol]
The IC50 of the first is higher: 5.6 to 8.5 nM for the first, 4 to 5.5 nM for the second. The second is the more potent here.

`CCS(=O)(=O)c1cccc(-c2ccc(OCCCO)c3[nH]c4ncc(C)cc4c23)c1` [Compound 217, 3-(5-(3-(ethylsulfonyl)phenyl)-3-methyl-9H-pyrido[2,3-b]indol-8-yloxy)propan-1-ol] and `CCS(=O)(=O)c1cccc(-c2ccc(OCCO)c3[nH]c4ncc(Cl)cc4c23)c1` [Compound 225, 2-(3-chloro-5-(3-(ethylsulfonyl)phenyl)-9H-pyrido[2,3-b]indol-8-yloxy)ethanol] fall in the same range of IC50: 4 to 5.5 nM for the first, 4 to 5.5 nM for the second.

Compared with `CCS(=O)(=O)c1cccc(-c2ccc(OC)c3[nH]c4ncc(Cl)cc4c23)c1` [Compound 218], `CCS(=O)(=O)c1cccc(-c2ccc(OCCN(C)C)c3[nH]c4ncc(Cl)cc4c23)c1` [Compound 222, 2-(3-chloro-5-(3-(ethylsulfonyl)phenyl)-9H-pyrido[2,3-b]indol-8-yloxy)-N,N-dimethylethanamine] is higher in IC50: less than 4 nM for the first, 4 to 5.5 nM for the second.

Compared with `CCS(=O)(=O)c1cccc(-c2ccc(OCCCN(C)C)c3[nH]c4ncc(Cl)cc4c23)c1` [Compound 220, 3-(3-chloro-5-(3-(ethylsulfonyl)phenyl)-9H-pyrido[2,3-b]indol-8-yloxy)-N,N-dimethylpropan-1-amine], `CCN(CC)CCOc1ccc(-c2cccc(S(=O)(=O)CC)c2)c2c1[nH]c1ncc(Cl)cc12` [Compound 221, 2-(3-chloro-5-(3-(ethylsulfonyl)phenyl)-9H-pyrido[2,3-b]indol-8-yloxy)-N,N-diethylethanamine] is higher in IC50: 4 to 5.5 nM for the first, 5.6 to 8.5 nM for the second. The first is the more potent here.

`CCS(=O)(=O)c1cccc(-c2ccc(OCCN3CCCC3)c3[nH]c4ncc(Cl)cc4c23)c1` [Compound 223, 3-chloro-5-(3-(ethylsulfonyl)phenyl)-8-(2-(pyrrolidin-1-yl)ethoxy)-9H-pyrido[2,3-b]indole] and `CCS(=O)(=O)c1cccc(-c2ccc(OCCOC(=O)[C@H](C)N)c3[nH]c4ncc(C)cc4c23)c1` [Compound 226, (S)-2-(5-(3-(ethylsulfonyl)phenyl)-3-methyl-9H-pyrido[2,3-b]indol-8-yloxy)ethyl 2-aminopropanoate] fall in the same range of IC50: 5.6 to 8.5 nM for the first, 5.6 to 8.5 nM for the second.

With `CCS(=O)(=O)c1cccc(-c2ccc(OCCCOC(=O)[C@H](C)N)c3[nH]c4ncc(C)cc4c23)c1` [Compound 227, (S)-3-(5-(3-(ethylsulfonyl)phenyl)-3-methyl-9H-pyrido[2,3-b]indol-8-yloxy)propyl 2-aminopropanoate] the IC50 was 5.6 to 8.5 nM.

From US20090312288A1 (TAKEDA PHARMACEUTICAL COMPANY LIMITED, priority 2008, published 2009)
